Experiment [1] deals with Human pulmonary artery EC. Nature of the experiment: Cortical actin (phalloidin) staining and quantitation. The note with it: for cortical actin ring formation (F-actin localization): early, timepoint 5 min. In kind it is cell-based. The protocol: Immunofluorescence Microscopy and Cortical Actin Quantitation—Polymerized actin rearrangement was assessed first with Texas Red-conjugated phalloidin (Invitrogen (Molecular Probes), Eugene, Oreg.) and then analyzed using a Nikon Eclipse TE 300 microscope as described (Garcia et al., 2001). ImageQuant™ software (Amersham Biosciences Corp. (Piscataway, N.J.)) was used to analyze the computer recorded .tiff images. A standardized average grey value (SAGV) was generated for total phalloidin staining versus cortical phalloidin staining for each cell (Singleton et al., 2005). The following equation was used to calculate percent cortical actin staining: ((cortical actin SAGV×area) divided by (total actin SAGV×area))×100. At least ten cells per sample were analyzed. Experiments were performed in triplicate.
Immunofluorescence Microscopy. EC were serum-starved for one hour prior to the addition of 100 nM high MW HA. EC were then fixed in 4% paraformaldehyde, permeablized with ethanol and incubated with specific protein or interest primary antibody for 30 min followed by either FITC or Texas Red-conjugated secondary (Invitrogen (Molecular Probes), Eugene, Oreg.) and analyzed using a Nikon Eclipse TE 300 microscope as described (Garcia et. al., 2001).

Experiment [2] relates to CD44s, CD44v10, S1P1 and S1P3 receptors in lipid rafts. The experiment is described as follows: CD44 isoform / S1P receptor recruitment and association in lipid raft (CEM) fractions. In kind it is cell-based, human. The note with it: for CD44 isoform association with S1P receptors in lipid rafts: 100 nM HA, immunoprecipitation from lipid raft fractions. The method, then:
Lipid Raft Isolation—Caveolin-enriched microdomain known as lipid rafts were isolated from human lung EC as described (Singleton and Bourguignon, 2004; Singleton et al., 2005). Materials insoluble in Triton X-100-insoluble were mixed with 0.6 ml of cold 60% Optiprep™ and then overlaid with 0.6 ml of 40%-20% Optiprep™. The resulting gradients were then centrifuged (35,000 rpm) in SW60 rotor for 12 h at 4° C. and different fractions were collected and analyzed. In some cases, different fractions were analyzed for total cholesterol content using a cholesterol assay kit (Amplex Red™, Invitrogen (Molecular Probes), Eugene, Oreg.).
Immunoprecipitation and Immunoblotting—Cellular materials associated within the 20% Optiprep™ fractions (lipid raft fraction) were incubated with IP buffer A (50 mM HEPES (pH 7.5), 150 mM NaCl, 20 mM MgCl2, 1% Nonidet P-40 (NP-40), 0.4 mM Na3VO4, 40 mM NaF, 50 μM okadaic acid, 0.2 mM phenylmethylsulfonyl fluoride, 1:250 dilution of Calbiochem protease inhibitor mixture 3) or IP buffer B (50 mM HEPES (pH 7.5), 150 mM NaCl, 20 mM MgCl2, 1% Triton X-100, 0.1% SDS, 0.4 mM Na3VO4, 40 mM NaF, 50 μM okadaic acid, 0.2 mM phenylmethylsulfonyl fluoride, 1:250 dilution of Calbiochem protease inhibitor mixture 3) as indicated. The samples were then immunoprecipitated with anti-S1P1 receptor or anti-S1P3 receptor IgG followed by SDS-PAGE in 4-15% polyacrylamide gels, and transfer onto Immobilon™ membranes. Development occurred using specific primary and secondary antibodies. Enhanced chemiluminescence (Amersham Biosciences) for visualization of immunoreactive bands then took place.
Determination of Complex Formation between S1P1 Receptor/CD44s and S1P3 Receptor/CD44v10—EC monolayers were serum-starved for one hour, then treated with High or Low MW HA (100 nM) (5-30 min.) and solubilized in IP buffer A (see above). Following immunoprecipitation with either rabbit anti-S1P1 receptor or mouse anti-S1P3 receptor antibody, the samples were subjected to SDS-PAGE in 4-15% polyacrylamide gels and transfer onto Immobilon™ membranes (Millipore Corp., Bedford, Mass.). Nonspecific sites were then blocked with 5% bovine serum albumin, and the blots were then incubated with either rat anti-CD44 (IM-7, common domain) antibody, rabbit anti-S1P1 antibody or mouse anti-S1P3 antibody followed by incubation with horseradish peroxidase (HRP)-labeled goat anti-rabbit, goat anti-mouse or goat anti-rat IgG. Enhanced chemiluminescence (Amersham Biosciences) for visualization of immunoreactive bands then took place.

Take hyaluronan [LMW-HA, reference compound]: the “cortical actin staining / F-actin stress fiber formation” value in experiment [1] (challenge for 30 min) is “loss of cortical actin staining with increased F-actin stress fiber formation”. Besides, the “cortical actin ring formation (F-actin localization)” value in experiment [1] is recorded as “induced prominent cortical actin ring formation early on”. Also, in experiment [2] (100 nM HA, 5, 15 or 30 min), the “recruitment of CD44s to the lipid raft fraction” value is reported as “rapidly (5 min.) recruit CD44s to the lipid raft fraction” and the “recruitment of CD44v10 to the lipid raft fraction” value is listed as “robust but delayed recruitment of CD44v10 (after 15 min.)”. Moreover, in experiment [2], the “CD44 isoform association with S1P receptors in lipid rafts” value is listed as “induced an initial CD44s association with S1P1 which was followed by CD44v10 association with S1P3 receptor in lipid raft fractions”.
In the case of hyaluronan [HMW-HA], in experiment [1], the “cortical actin ring formation (F-actin localization)” value is given as “induced prominent cortical actin ring formation early on”. The “recruitment of CD44s to the lipid raft fraction” value in experiment [2] (100 nM HA, 5, 15 or 30 min) was “rapidly (5 min.) recruit CD44s to the lipid raft fraction”. The “CD44 isoform association with S1P receptors in lipid rafts” value in experiment [2] was “induced CD44s association in lipid rafts with S1P1”.
